Reference: US20240217968A1, “PHARMACEUTICAL COMPOUND” (DUKE STREET BIO LIMITED, priority 2021, published 2024)

The molecules below were run against T1, recombinant human Flag-tagged PARP7 (amino acids 456-657) (Homo sapiens, UniProt Q7Z3E1) (assay: PARP7 biochemical DELFIA assay (auto-MARylation)). Details: DELFIA readout, IC50 class.
T1 construct: recombinant human Flag-tagged PARP7 (amino acids 456-657)
T1 sequence (Q7Z3E1 456-657): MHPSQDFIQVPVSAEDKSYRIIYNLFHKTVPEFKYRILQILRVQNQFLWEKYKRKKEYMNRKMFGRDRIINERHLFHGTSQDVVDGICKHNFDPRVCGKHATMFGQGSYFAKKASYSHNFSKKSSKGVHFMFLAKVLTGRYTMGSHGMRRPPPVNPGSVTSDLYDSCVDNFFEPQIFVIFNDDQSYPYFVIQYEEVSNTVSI
Summary of the method: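 Flag-PARP7 (456-657), 12.5-37.5 nM stock, captured on anti-FLAG wells, preincubated 30 min with compound, then auto-MARylated with biotin-NAD+ (15 μM stock) in HEPES pH 7.5/NaCl/DTT/BSA/Tween for 2-3 h at room temperature. NAD+ quench; Eu-streptavidin DELFIA read, Ex337/Em620 nm.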

SMILES	IC50 [nM]
[2H]C([2H])(OCCC(=O)N1CCN(c2ncc(C(F)(F)F)cn2)CC1)C(C)n1nc(C(F)(F)F)c2c(=O)[nH]ncc21 (single isomer, unassigned) [Compound 423]	≤ 100
O=C(CCOCC(c1cccc2c(=O)[nH]ncc12)C(F)(F)F)N1CCN(c2ncc(C(F)(F)F)cn2)CC1 (single isomer, unassigned) [Compound 427]	100 to 1000
CC(COCCC(=O)N1CCN(c2cc(C(F)(F)F)on2)CC1)n1nc(C(F)(F)F)c2c(=O)[nH]ncc21 (single isomer, unassigned) [Compound 429]	≤ 100
CC(COCCC(=O)N1CCN(c2cc(C(F)(F)F)on2)CC1)n1nc(C(F)(F)F)c2c(=O)[nH]ncc21 (single isomer, unassigned) [Compound 430]	100 to 1000
CC(COCCC(=O)N1CCN(c2ccc(C#N)cn2)CC1)n1cc(C(F)(F)F)c2c(=O)[nH]ncc21 (single isomer, unassigned) [Compound 431]	≤ 100
CC(COCCC(=O)N1CCN(c2ccc(C#N)cn2)CC1)n1cc(C(F)(F)F)c2c(=O)[nH]ncc21 (single isomer, unassigned) [Compound 432]	≤ 100
CC(COCCC(=O)N1CCN(c2ncc(C(F)(F)F)cn2)CC1)n1nc(C(F)F)c2c(=O)[nH]ncc21 (single isomer, unassigned) [Compound 436]	≤ 100
CC(COCCC(=O)N1CCN(c2ccc(C#N)cn2)CC1)n1nc(C(F)F)c2c(=O)[nH]ncc21 (single isomer, unassigned) [Compound 437]	≤ 100
CC(COCCC(=O)N1CCN(c2ncc(C#N)cn2)CC1)n1cc(C(F)F)c2c(=O)[nH]ncc21 (single isomer, unassigned) [Compound 439]	≤ 100
CC(COCCC(=O)N1CCN(c2cc(Cl)c(F)cn2)CC1)n1nc(C(F)(F)F)c2c(=O)[nH]ncc21 (single isomer, unassigned) [Compound 444]	≤ 100
CC(COCCC(=O)N1CCN(c2cc(Cl)c(F)cn2)CC1)n1nc(C(F)(F)F)c2c(=O)[nH]ncc21 (single isomer, unassigned) [Compound 445]	≤ 100
CC(COCCC(=O)N1CCN(c2ccc(C#N)cn2)CC1)n1cc(C(F)F)c2c(=O)[nH]ncc21 (single isomer, unassigned) [Compound 448]	≤ 100
CC(CCOCC(=O)N1CCN(c2ncc(C(F)(F)F)cn2)CC1)n1cc(C(F)(F)F)c2c(=O)[nH]ncc21 (single isomer, unassigned) [Compound 455]	≤ 100
CC(CCOCC(=O)N1CCN(c2ncc(Cl)cn2)CC1)n1cc(C(F)(F)F)c2c(=O)[nH]ncc21 (single isomer, unassigned) [Compound 456]	≤ 100
CC(CCOCC(=O)N1CCN(c2ncc(Cl)cn2)CC1)n1cc(C(F)(F)F)c2c(=O)[nH]ncc21 (single isomer, unassigned) [Compound 457]	≤ 100
CC(COCC(=O)NC1CCN(c2ncc(C(F)(F)F)cn2)CC1)n1cc(C(F)(F)F)c2c(=O)[nH]ncc21 (single isomer, unassigned) [Compound 459]	≤ 100
CC(COCC(=O)N(C)C1CCN(c2ncc(C(F)(F)F)cn2)CC1)n1nc(C(F)(F)F)c2c(=O)[nH]ncc21 (single isomer, unassigned) [Compound 460, N-methyl-2-(2-(4-oxo-3-(trifluoromethyl)-4,5-dihydro-1H-pyrazolo[3,4-d]pyridazin-1-yl)propoxy)-N-(1-(5-(trifluoromethyl)pyrimidin-2-yl)piperidin-4-yl) acetamide]	≤ 100
CC(COCC(=O)N(C)C1CCN(c2ncc(C(F)(F)F)cn2)CC1)n1nc(C(F)(F)F)c2c(=O)[nH]ncc21 (single isomer, unassigned) [Compound 461, N-methyl-2-(2-(4-oxo-3-(trifluoromethyl)-4,5-dihydro-1H-pyrazolo[3,4-d]pyridazin-1-yl)propoxy)-N-(1-(5-(trifluoromethyl)pyrimidin-2-yl)piperidin-4-yl) acetamide]	≤ 100
CC(COCC(=O)N(C)C1CCN(c2ncc(C(F)(F)F)cn2)CC1)n1cc(C(F)(F)F)c2c(=O)[nH]ncc21 (single isomer, unassigned) [Compound 462]	≤ 100
CC(COCCC(=O)N1CCN(c2ncc(C#N)cn2)CC1)n1cc(C(F)(F)F)c2c(=O)[nH]ncc21 (single isomer, unassigned) [Compound 464]	≤ 100
CC(CCOCC(=O)N1CCN(c2ccc(C#N)cn2)CC1)n1nc(C(F)(F)F)c2c(=O)[nH]ncc21 (single isomer, unassigned) [Compound 466]	≤ 100

SMILES	IC50 [nM]
CC(CCOCC(=O)N1CCN(c2ccc(C#N)cn2)CC1)n1nc(C(F)(F)F)c2c(=O)[nH]ncc21 (single isomer, unassigned) [Compound 467]	≤ 100
CC(COCCC(=O)N1CCN(c2ncc(F)cn2)CC1)n1cc(C(F)(F)F)c2c(=O)[nH]ncc21 (single isomer, unassigned) [Compound 468]	≤ 100
CC(COCCC(=O)N1CCN(c2ncc(F)cn2)CC1)n1cc(C(F)(F)F)c2c(=O)[nH]ncc21 (single isomer, unassigned) [Compound 469]	≤ 100
CC(COCCC(=O)N1CCN(c2nnc(C(F)(F)F)o2)CC1)n1nc(C(F)(F)F)c2c(=O)[nH]ncc21 (single isomer, unassigned) [Compound 472]	≤ 100
CC(COCCC(=O)N1CCN(c2nnc(C(F)(F)F)o2)CC1)n1nc(C(F)(F)F)c2c(=O)[nH]ncc21 (single isomer, unassigned) [Compound 473]	100 to 1000
[2H]C(C)(COCCC(=O)N1CCN(c2ncc(C(F)(F)F)cn2)CC1)n1cc(C(F)(F)F)c2c(=O)[nH]ncc21 (single isomer, unassigned) [Compound 476, 1-(1-(3-oxo-3-(4-(5-(trifluoromethyl)pyrimidin-2-yl)piperazin-1-yl)propoxy)propan-2-yl-2-d)-3-(trifluoromethyl)-1,5-dihydro-4H-pyrrolo[2,3-d]pyridazin-4-one]	≤ 100
[2H]C(C)(COCCC(=O)N1CCN(c2ncc(C(F)(F)F)cn2)CC1)n1cc(C(F)(F)F)c2c(=O)[nH]ncc21 (single isomer, unassigned) [Compound 477, 1-(1-(3-oxo-3-(4-(5-(trifluoromethyl)pyrimidin-2-yl)piperazin-1-yl)propoxy)propan-2-yl-2-d)-3-(trifluoromethyl)-1,5-dihydro-4H-pyrrolo[2,3-d]pyridazin-4-one]	≤ 100
CC(COCC(=O)NC1CCN(c2ncc(C(F)(F)F)cn2)CC1)n1nc(C(F)(F)F)c2c(=O)[nH]ncc21 (single isomer, unassigned) [Compound 479, 2-(2-(4-oxo-3-(trifluoromethyl)-4,5-dihydro-1H-pyrazolo[3,4-d]pyridazin-1-yl)propoxy)-N-(1-(5-(trifluoromethyl)pyrimidin-2-yl)piperidin-4-yl) acetamide]	≤ 100
CC(COCC(=O)NC1CCN(c2ncc(C(F)(F)F)cn2)CC1)n1nc(C(F)(F)F)c2c(=O)[nH]ncc21 (single isomer, unassigned) [Compound 480, 2-(2-(4-oxo-3-(trifluoromethyl)-4,5-dihydro-1H-pyrazolo[3,4-d]pyridazin-1-yl)propoxy)-N-(1-(5-(trifluoromethyl)pyrimidin-2-yl)piperidin-4-yl) acetamide]	≤ 100
CC(COCCC(=O)N1CCN(c2ncc(C(C)(F)F)cn2)CC1)n1cc(C(F)(F)F)c2c(=O)[nH]ncc21 (single isomer, unassigned) [Compound 482]	≤ 100
CC(COCCC(=O)N1CCN(c2ccc(C(C)(F)F)cn2)CC1)n1cc(C(F)(F)F)c2c(=O)[nH]ncc21 (single isomer, unassigned) [Compound 484]	≤ 100
CC(COCCC(=O)N1CCN(c2ncc(C(C)(F)F)cn2)CC1)n1nc(C(F)(F)F)c2c(=O)[nH]ncc21 (single isomer, unassigned) [Compound 485]	≤ 100
CC(COCCC(=O)N1CCN(c2ncc(C(C)(F)F)cn2)CC1)n1nc(C(F)(F)F)c2c(=O)[nH]ncc21 (single isomer, unassigned) [Compound 486]	≤ 100
CC(COCCC(=O)N1CCN(c2ncc(C#N)cn2)CC1)n1nc(C(F)F)c2c(=O)[nH]ncc21 (single isomer, unassigned) [Compound 490]	≤ 100
CC(COCCC(=O)N1CCN(c2ncc(C#N)cn2)CC1)n1nc(C(F)F)c2c(=O)[nH]ncc21 (single isomer, unassigned) [Compound 491]	≤ 100
CC(CCOCC(=O)N1CCN(c2ccc(C#N)cn2)CC1)n1cc(C(F)(F)F)c2c(=O)[nH]ncc21 (single isomer, unassigned) [Compound 494]	≤ 100
CC(CCOCC(=O)N1CCN(c2ccc(C#N)cn2)CC1)n1cc(C(F)(F)F)c2c(=O)[nH]ncc21 (single isomer, unassigned) [Compound 495]	100 to 1000
CC(CCOCC(=O)N1CCN(c2ncc(C#N)cn2)CC1)n1nc(C(F)(F)F)c2c(=O)[nH]ncc21 (single isomer, unassigned) [Compound 496]	≤ 100
CC(CCOCC(=O)N1CCN(c2ncc(C#N)cn2)CC1)n1nc(C(F)(F)F)c2c(=O)[nH]ncc21 (single isomer, unassigned) [Compound 497]	≤ 100
CC(COCCC(=O)N1CCN(c2ncc(C(C)(C)C)cn2)CC1)n1cc(C(F)(F)F)c2c(=O)[nH]ncc21 (single isomer, unassigned) [Compound 498]	≤ 100
CC(COCCC(=O)N1CCN(c2ncc(C(C)(C)C)cn2)CC1)n1cc(C(F)(F)F)c2c(=O)[nH]ncc21 (single isomer, unassigned) [Compound 499]	≤ 100
